From patent US12195467B2, “Compound having TrkA inhibitory activity and pharmaceutical composition, for preventing or alleviating pain, containing same as active ingredient” (JBKLAB CO., LTD., priority 2018, dated 2025)

What was measured:
TrkC = target: T1, TrkC (Homo sapiens, UniProt Q16288); experiment: PathHunter eXpress TrkC functional assay kit (U2OS cells, agonist NT-3); type: cell-based; conditions: for inhibition at 1 µM: compound 1 μM, read-out: TrkC % inhibition rate (based on 1 μM)
T1 construct: host or cells: U2OS
T1 sequence (Q16288 32-839): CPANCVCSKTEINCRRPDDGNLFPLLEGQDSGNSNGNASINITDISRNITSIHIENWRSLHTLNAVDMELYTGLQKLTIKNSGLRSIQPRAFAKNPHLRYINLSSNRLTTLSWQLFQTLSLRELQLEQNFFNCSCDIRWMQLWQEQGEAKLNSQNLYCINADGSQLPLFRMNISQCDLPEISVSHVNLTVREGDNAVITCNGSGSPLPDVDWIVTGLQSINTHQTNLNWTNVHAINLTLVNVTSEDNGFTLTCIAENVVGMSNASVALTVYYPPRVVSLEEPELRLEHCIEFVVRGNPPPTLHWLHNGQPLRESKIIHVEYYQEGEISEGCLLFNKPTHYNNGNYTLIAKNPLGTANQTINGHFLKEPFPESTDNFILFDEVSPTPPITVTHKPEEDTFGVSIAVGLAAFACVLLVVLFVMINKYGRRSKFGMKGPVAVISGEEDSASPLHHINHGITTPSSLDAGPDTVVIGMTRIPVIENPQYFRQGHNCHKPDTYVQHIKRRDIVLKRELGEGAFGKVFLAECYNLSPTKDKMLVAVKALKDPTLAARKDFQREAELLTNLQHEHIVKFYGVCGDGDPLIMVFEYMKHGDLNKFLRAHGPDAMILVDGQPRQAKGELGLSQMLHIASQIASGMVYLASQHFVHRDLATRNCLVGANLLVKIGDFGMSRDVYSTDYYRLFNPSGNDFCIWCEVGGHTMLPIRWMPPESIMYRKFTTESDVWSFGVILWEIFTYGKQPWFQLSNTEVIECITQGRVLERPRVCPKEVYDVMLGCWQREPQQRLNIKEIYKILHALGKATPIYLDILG
Procedure: (§1) The inhibitory activity of the example compounds against TrkB and TrkC was evaluated using PathHunter® eXpress TrkB or TrkC functional assay kit (Product Code: 93-0463E3 and 93-0464E3) of DiscoverX. The test was carried out according to the analysis method provided by the manufacturer. The test was carried out as follows over 2 or 3 days depending on the conditions of cells.
(§2) 1. Before starting the experiment, the cell plating (CP) reagent stored at −80° C. was dissolved in a 37° C. water bath.
(§3) 2. When the CP reagent was dissolved, cell vials for TrkB or TrkC were prepared to be dissolved.
(§4) 3. Two U2OS cell vials (TrkB kit & TrkC kit) stored in liquid nitrogen were thawed.
(§5) 4. 500 μL of CP reagent was added to the thawed cell vial, and the cells were sufficiently mixed by pipetting and transferred to a Conical tube in which 11.5 mL of CP reagent was dispensed.
(§6) 5. 12 mL cells (1×10^6 cells in CP reagent) were seeded on a 96-well tissue culture treated plate (100 μL/well), followed by culture in a 37° C., 5% CO2 humidified incubator for 24 hours or 48 hours.
(§7) Day 2 or Day 3: Treatment of Test Material
(§8) 1. Test material, agonist and antagonist were prepared as stock solutions according to the experiment design. • Test material: 10 mM Stock solution in DMSO • Antagonist (GNF-5837): 10 mM Stock solution in 1.8674 mL DMSO • Agonist: TrkB agonist→BDNF, TrkC agonist→NT-3
(§9) 2. 10 mM stock solutions of teat material and antagonist having the concentration of 22 times more concentrated than the final screening concentration were prepared according to the experiment design.
(§10) 3. Each well of the 96-well culture plate containing cells was treated with 5 μL of the solutions of teat material and antagonist having the concentration of 22 times more concentrated than the final screening concentration (#2), followed by incubation at 37° C. for 60 minutes.
(§11) 4. During the incubation, 10 μg/mL stock solution of each agonist for TrkB and TrkC was prepared using a reconstitution buffer for the purpose of the experiment, and each well of the plate was treated with 5 μL of the prepared solution, followed by incubation at 19-25° C. for 3 hours.
(§12) 5. During the incubation, a detection reagent working solution (4.75 ml Cell assay buffer, 1.25 ml Substrate Reagent 1, 0.25 ml Substrate Reagent 2) was prepared. Upon completion of the incubation, 55 μL of the working solution was added into each well of the plate.
(§13) 7. The plate was incubated at room temperature for 60 minutes in a dark place, and the […] was measured with a luminescence plate reader.

TrkA = target: T2, TrkA (Homo sapiens, UniProt P04629); experiment: TrkA inhibitory activity, CycLex TrkA kinase assay/inhibitor screening kit; type: biochemical; conditions: for inhibition at 1 µM: compound 1 μM, read-out: % inhibition rate (based on 1 μM)
T2 construct: purchased MBL International (CycLex) CY-1091
T2 sequence (P04629 33-796): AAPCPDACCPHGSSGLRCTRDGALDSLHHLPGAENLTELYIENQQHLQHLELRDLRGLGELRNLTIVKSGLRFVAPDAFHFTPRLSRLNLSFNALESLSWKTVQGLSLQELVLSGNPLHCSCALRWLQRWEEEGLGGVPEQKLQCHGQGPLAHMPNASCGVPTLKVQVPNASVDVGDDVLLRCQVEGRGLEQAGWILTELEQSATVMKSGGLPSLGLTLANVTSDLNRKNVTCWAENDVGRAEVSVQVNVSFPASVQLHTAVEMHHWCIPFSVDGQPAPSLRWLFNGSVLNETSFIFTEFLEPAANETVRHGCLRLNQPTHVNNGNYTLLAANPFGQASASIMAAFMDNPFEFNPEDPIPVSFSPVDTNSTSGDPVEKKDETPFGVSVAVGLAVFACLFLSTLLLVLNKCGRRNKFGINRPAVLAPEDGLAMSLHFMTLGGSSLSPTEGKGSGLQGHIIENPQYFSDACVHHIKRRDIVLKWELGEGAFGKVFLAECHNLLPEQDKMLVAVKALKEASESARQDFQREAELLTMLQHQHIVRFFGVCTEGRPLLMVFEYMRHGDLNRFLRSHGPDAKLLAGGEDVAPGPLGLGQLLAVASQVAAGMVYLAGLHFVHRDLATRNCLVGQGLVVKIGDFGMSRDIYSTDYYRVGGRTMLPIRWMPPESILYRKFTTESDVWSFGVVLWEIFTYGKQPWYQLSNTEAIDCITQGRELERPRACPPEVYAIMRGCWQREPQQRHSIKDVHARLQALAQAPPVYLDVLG
Procedure: The TrkA inhibitory activity of the compounds was evaluated using CycLex® TrkA kinase assay/inhibitor screening kit of MBL International (Cat No. CY-1091). The test was carried out according to the analysis method provided by the manufacturer. The test method is as follows.
1. 1× wash buffer was prepared by diluting 10× wash buffer in ddH2O.
2. 20×ATP solution (1.25 mM) was prepared by adding 1.6 mL of distilled water to the tube containing ATP dissolved in NA2 salt and freeze-dried.
4. A working solution mixture and a solution of the appropriate concentration of the example compound to evaluate the activity of the example compound were prepared and dispensed into a 96-well plate as shown in table below.
5. After dispensing the solutions into a 96-well plate, the plate was incubated at 30° C. for 30 minutes.
6. After incubation of the plate at 30° C. for 30 minutes, 200 μL of 1× wash buffer was added into each well of the plate, followed by washing. This process was repeated 5 times.
7. After washing the plate, 100 μL of HRP conjugated detection antibody (PX-39) was added into each well of the plate, followed by reaction at room temperature for 60 minutes.
8. Upon completion of the reaction, 200 μL of 1× wash buffer was added into each well of the plate, followed by washing. This process was repeated 5 times.
9. After washing the plate, 100 μL of substrate reagent containing chromogenic substrate and tetra-methylbenzidine (TMB) was added into each well of the plate, followed by incubation at room temperature for 5-15 minutes.
10. Upon completion of the reaction, 100 μL of stop solution (1 N H2SO4) was added into each well of the plate, followed by measuring OD450 within 30 minutes.

TrkB = target: T3, TrkB (Homo sapiens, UniProt Q16620); experiment: PathHunter eXpress TrkB functional assay kit (U2OS cells, agonist BDNF); type: cell-based; conditions: compound 1 μM, read-out: TrkB % inhibition rate (based on 1 μM)
T3 construct: host or cells: U2OS
T3 sequence (Q16620 32-822): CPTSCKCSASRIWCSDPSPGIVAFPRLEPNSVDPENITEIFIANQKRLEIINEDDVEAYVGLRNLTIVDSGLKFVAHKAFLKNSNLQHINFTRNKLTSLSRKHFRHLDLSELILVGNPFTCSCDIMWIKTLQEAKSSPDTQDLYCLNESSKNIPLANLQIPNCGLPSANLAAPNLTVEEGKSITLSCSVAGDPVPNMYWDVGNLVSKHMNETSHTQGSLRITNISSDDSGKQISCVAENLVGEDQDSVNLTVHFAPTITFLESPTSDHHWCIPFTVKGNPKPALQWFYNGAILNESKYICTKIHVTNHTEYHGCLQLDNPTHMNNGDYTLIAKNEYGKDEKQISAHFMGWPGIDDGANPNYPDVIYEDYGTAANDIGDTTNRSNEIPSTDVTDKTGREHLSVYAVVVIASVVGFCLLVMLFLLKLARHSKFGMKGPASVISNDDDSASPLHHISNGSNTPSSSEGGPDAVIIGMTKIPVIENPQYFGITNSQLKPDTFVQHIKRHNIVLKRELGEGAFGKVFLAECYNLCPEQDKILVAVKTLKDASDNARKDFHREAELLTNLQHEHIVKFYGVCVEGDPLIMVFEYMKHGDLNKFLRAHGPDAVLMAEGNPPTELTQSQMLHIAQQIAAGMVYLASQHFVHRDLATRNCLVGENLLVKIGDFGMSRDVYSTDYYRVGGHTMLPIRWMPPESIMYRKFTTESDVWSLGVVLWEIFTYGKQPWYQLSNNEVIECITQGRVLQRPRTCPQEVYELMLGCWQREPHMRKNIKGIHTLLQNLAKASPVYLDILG
Procedure: as §1, §2, §3, §4, §5, §6, §7, §8, §9, §10, §11, §12, §13

[1] = test system: postoperative pain animal model; experiment: Pharmacological activity in postoperative pain model (von-Frey mechanical allodynia, 50% withdrawal threshold); type: in vivo, Sprague-Dawley male rats; conditions: oral, rat postoperative pain model, 2 days after surgery; for ED50: 48 h, read-out: ED50
Procedure: Sprague-Dawley male rats weighing around 150 g (Orient bio., Korea) were used. Rats were raised in an environment where a 12-hour light-dark cycle was maintained, 4 per transparent plastic cage covered with scob as bedding. Food and water were provided freely. To verify the analgesic effect of the example compounds, all rats were anesthetized with O2 delivered from the induction chamber at a ratio of 3:3 of isoflurane and operated. Anesthetized rats were placed on a 37° C. warm plate to prevent hypothermia during the operation. The ipsilateral sole (left) of the hind paw of the experimental animal was disinfected with 10% povidone-iodine solution, and incised to a length of 1 cm with a #11 surgical knife. The incision was made starting from 0.5 cm of the proximal edge of the heel through the skin and fascia on the side of the ipsilateral sole toward the toe. After the incision, a gentle pressure was applied to the incision site to stop the bleeding and the skin was sutured. The surgical site was sterilized with 10% povidone-iodine solution, and gentamicin (8 mg/kg) was administered intraperitoneally to prevent infection. The analgesic effect of the compound on postoperative pain was evaluated in the experimental animals 2 days after the surgery. […] The formula for calculating the 50% withdrawal threshold (g) is as follows. 50% Withdrawal threshold (g)=(10^(x+kd))/10^4 [Mathematical Formula 1] • x=the value of the last tested filament (log unit value). • k=the value indicating positive/negative reaction by up-down method. • d=the value fixed at 0.224 as the average difference between stimuli.

| Compound | IC50 (TrkC) | inhibition at 1 µM (TrkC) | IC50 (TrkA) | inhibition at 1 µM (TrkA) | inhibition at 1 µM (TrkB) | ED50 [1] | Maximum duration of drug efficacy [1] |
| --- | --- | --- | --- | --- | --- | --- | --- |
| CN1CCN(c2ccc(C(=O)Nc3n[nH]c4ncc(-c5ccccc5)cc34)cc2)CC1 [Example 10, 4-(4-methylpiperazine-1-yl)-N-(5-phenyl-1H-pyrazolo[3,4-b]pyridine-3-yl)benzamide] | 1070 nM | 49% | 213 nM | 98% | 27% | 3.8 mg/kg | 0.5 h |
| CN1CCN(c2ccc(C(=O)Nc3n[nH]c4ncc(-c5ccncc5)cc34)cc2)CC1 [Example 13, 4-(4-methylpiperazine-1-yl)-N-(5-(pyridine-4-yl)-1H-pyrazolo[3,4-b]pyridine-3-yl)benzamide] | – | 0% | 179 nM | 99% | -1% | 11.5 mg/kg | 1.0 h |
| CN1CCN(c2ccc(C(=O)Nc3n[nH]c4ncc(Br)cc34)cc2)CC1 [Example 14, N-(5-bromo-1H-pyrazolo[3,4-b]pyridine-3-yl)-4-(4-methylpiperazine-1-yl)benzamide] | – | -20% | 122 nM | 101% | -8% | 3.8 mg/kg | 0.5 h |
| Oc1c(Cl)cc(-c2c[nH]c3ncnc(-c4cnn(C5CCNCC5)c4)c23)cc1Cl [Example 15, 2,6-dichloro-4-(4-(1-(piperidine-4-yl)-1H-pyrazole-4-yl)-7H-pyrrolo[2,3-d]pyrimidine-5-yl)phenol] | – | -16% | – | 95% | 4% | 20.1 mg/kg | 0.5 h |
